Calls of active or inactive are those of the source. How the calls were made is not given here.
System: GENE-TOX genotoxicity assays, various organisms and cells
Test: GENE-TOX mutagenicity studies
Conditions: for call: Assay Type: In vivo carcinogenicity studies
[1] = Species/Cell Type: Escherichia coli polA (W3119 vs P3478), Assay Type: Rec-assay, DNA effects (bacterial DNA repair), Assay Code: RE1T, Evaluation Type: Evaluation A (Pre-1980)
[2] = Species/Cell Type: Saccharomyces cerevisiae, Assay Type: Mitotic recombination or gene conversion, Assay Code: YEH-, Evaluation Type: Evaluation A (Pre-1980)
[3] = Species/Cell Type: Salmonella typhimurium (one or more of the five standard strains: TA98, TA100, TA1535, TA1537, and TA1538), Assay Type: Histidine reverse gene mutation, Ames assay, Assay Code: SAL+*, Activation: With metabolic activation, Evaluation Type: Evaluation A (Pre-1980)
[4] = Species/Cell Type: Drosophila melanogaster, Assay Type: Sex-linked recessive lethal gene mutation, Assay Code: SRL+, Evaluation Type: Evaluation A (Pre-1980)
[5] = Species/Cell Type: Chinese hamster ovary (CHO) cells, Assay Type: Forward gene mutation at the HPRT locus, Assay Code: CHO+, Evaluation Type: Evaluation B (Post-1980)
[6] = Species/Cell Type: Salmonella typhimurium (one or more of the five standard strains: TA98, TA100, TA1535, TA1537, and TA1538), Assay Type: Histidine reverse gene mutation, Ames assay, Assay Code: SAL+, Evaluation Type: Evaluation A (Pre-1980)
[7] = Species/Cell Type: Chinese hamster lung (V79) cells, Assay Type: Forward gene mutation at the HPRT or ouabain locus, Assay Code: V79+, Evaluation Type: Evaluation A (Pre-1980)
[8] = Species/Cell Type: Nonhuman, Assay Code: CCGT, Evaluation Type: Evaluation A (Pre-1980)
[9] = Species/Cell Type: Mammalian polychromatic erythrocytes, Assay Type: Micronucleus test, chromosome aberrations, Assay Code: MNTT, Evaluation Type: Evaluation B (Post-1980)
[10] = Species/Cell Type: Syrian hamster embryo (SA7/SHE) cells, Assay Type: Cell transformation, viral enhanced, Assay Code: CT7+, Evaluation Type: Evaluation A (Pre-1980)

SMILES: c1ccc2c(c1)ccc1c3ccccc3ccc21
- mutagenic call (Species/Cell Type: Escherichia coli polA (W3110 vs P3478), Assay Type: Rec-assay, DNA effects (bacterial DNA repair), Assay Code: RE2-, Evaluation Type: Evaluation A (Pre-1980)): inactive; negative
- mutagenic call [1]: no conclusion
- mutagenic call (Species/Cell Type: Mammalian germ cells, Sex: Male, Assay Type: Chromosome aberrations in vivo, Assay Code: CY9-, Evaluation Type: Evaluation A (Pre-1980)): inactive; negative
- mutagenic call (Species/Cell Type: Mouse prostate cells, Assay Type: Cell transformation, Assay Code: CTM-, Evaluation Type: Evaluation A (Pre-1980)): inactive; negative
- call (Species/Cell Type: Nonhuman, Assay Code: CCG+L, Evaluation Type: Evaluation A (Pre-1980)): active; positive
- mutagenic call (Species/Cell Type: Nonhuman, Assay Type: Sister-chromatid exchange (SCE) in vivo, Assay Code: SC3+, Evaluation Type: Evaluation B (Post-1980)): active; positive
- mutagenic call (Species/Cell Type: Nonhuman, Assay Type: Sister-chromatid exchange (SCE) in vivo, Assay Code: SC3T, Evaluation Type: Evaluation A (Pre-1980)): no conclusion
- mutagenic call [2]: inactive; negative
- mutagenic call [3]: active; positive
- mutagenic call (Species/Cell Type: Salmonella typhimurium, Assay Type: Forward and reverse gene mutation, host-mediated assay, Assay Code: HMA-, Evaluation Type: Evaluation A (Pre-1980)): inactive; negative
- mutagenic call (Species/Cell Type: Syrian hamster embryo (SHE) cells, Assay Type: Cell transformation, clonal assay, Assay Code: CTC+, Evaluation Type: Evaluation A (Pre-1980)): active; positive

SMILES: O=C(O)C(c1ccc(Cl)cc1)c1ccc(Cl)cc1
- mutagenic call [4]: active; positive
- mutagenic call (Species/Cell Type: Nonhuman, Assay Type: Chromosome aberrations in vitro, Assay Code: CY&-, Evaluation Type: Evaluation A (Pre-1980)): inactive; negative
- mutagenic call (Species/Cell Type: Salmonella typhimurium, Serratia marcesens, Assay Type: Forward and reverse gene mutation, host-mediated assay, Assay Code: HM2-, Evaluation Type: Evaluation A (Pre-1980)): inactive; negative

SMILES: COc1ccc2[nH]c3c(C)c4ccncc4c(C)c3c2c1
- mutagenic call [5]: active; positive

SMILES: C=C1C(=O)O[C@@H]2C[C@@H](C)[C@@H]3C[C@H](O)O[C@@H](O)[C@@]3(C)C[C@H]12
- mutagenic call [6]: active; positive

SMILES: Cc1c2c(c(C)c3c1ccc1ccccc13)C=C[C@@H](O)[C@@H]2O
- mutagenic call [7]: active; positive
- mutagenic call (Species/Cell Type: Mouse prostate cells, Assay Type: Cell transformation, Assay Code: CTM+D, Dose Response: With dose response, Evaluation Type: Evaluation A (Pre-1980)): active; positive
- call [8]: no conclusion

SMILES: Nc1cnn(-c2ccccc2)c(=O)c1Cl
- mutagenic call (Species/Cell Type: Saccharomyces cerevisiae, Assay Type: Mitotic recombination or gene conversion, Assay Code: YEC-, Evaluation Type: Evaluation A (Pre-1980)): inactive; negative

SMILES: CC(C)(O)C(Cl)(Cl)Cl
- mutagenic call [9]: no conclusion

SMILES: COc1ccc([C@@H]2CC(=O)c3c(O)cc(O[C@@H]4O[C@H](CO)[C@@H](O)[C@H](O)[C@H]4O[C@@H]4O[C@@H](C)[C@H](O)[C@@H](O)[C@H]4O)cc3O2)cc1O
- mutagenic call (Species/Cell Type: Salmonella typhimurium, Assay Type: Forward and reverse gene mutation, body fluid assay, Assay Code: BFU-, Evaluation Type: Evaluation A (Pre-1980)): inactive; negative

SMILES: Nc1ccc(Nc2ccccc2)cc1
- mutagenic call (Species/Cell Type: Neurospora crassa, Assay Type: Aneuploidy, chromosome aberrations, Assay Code: NEN-, Evaluation Type: Evaluation A (Pre-1980)): inactive; negative
- call (Species/Cell Type: Nonhuman, Assay Code: CCG-L, Evaluation Type: Evaluation A (Pre-1980)): inactive; negative

SMILES: CC(C)Cl
- mutagenic call [2]: inactive; negative
- mutagenic call [6]: active; positive

SMILES: O=NN(CCCl)C(=O)NCCCCCNC(=O)N(CCCl)N=O
- mutagenic call [4]: active; positive
- mutagenic call (Species/Cell Type: Saccharomyces cerevisiae, Assay Type: Mitotic recombination or gene conversion, Assay Code: YEC+, Evaluation Type: Evaluation A (Pre-1980)): active; positive

SMILES: CC1CCOS(=O)(=O)O1 (stereo not drawn)
- mutagenic call [6]: active; positive
- mutagenic call (Species/Cell Type: Salmonella typhimurium, Assay Type: Forward and reverse gene mutation, host-mediated assay, Assay Code: HMA+, Evaluation Type: Evaluation A (Pre-1980)): active; positive

SMILES: Cn1ncc2c(NC3=NCCO3)cccc21
- mutagenic call [9]: no conclusion
- mutagenic call (Species/Cell Type: Nonhuman, Assay Type: Sister-chromatid exchange (SCE) in vivo, Assay Code: SC3T, Evaluation Type: Evaluation B (Post-1980)): no conclusion

SMILES: CN=C=O
- mutagenic call (Species/Cell Type: Mammalian polychromatic erythrocytes, Assay Type: Micronucleus test, chromosome aberrations, Assay Code: MNT+U, Dose Response: Unconfirmed positive response, Evaluation Type: Evaluation B (Post-1980)): active; positive

SMILES: COC(=O)C1=CCCN(N=O)C1
- mutagenic call (Species/Cell Type: Drosophila melanogaster, Assay Type: Sex-linked recessive lethal gene mutation, Assay Code: SRLT, Evaluation Type: Evaluation A (Pre-1980)): no conclusion
- mutagenic call [3]: active; positive

SMILES: O=c1[nH]c(=O)n([C@H]2C[C@H](O)[C@@H](CO)O2)cc1Br
- mutagenic call (Species/Cell Type: Arabidopsis species, Assay Type: Gene mutation, Assay Code: ARMT, Evaluation Type: Evaluation A (Pre-1980)): no conclusion
- mutagenic call [7]: active; positive
- mutagenic call [5]: active; positive
- mutagenic call [4]: active; positive
- mutagenic call (Species/Cell Type: Drosophila melanogaster, Sex: Male, Assay Type: Heritable translocation test, chromosome aberrations, Assay Code: DHTT, Evaluation Type: Evaluation A (Pre-1980)): no conclusion
- mutagenic call [1]: no conclusion
- mutagenic call (Species/Cell Type: Human diploid fibroblasts, Assay Type: Unscheduled DNA synthesis (UDS) in vitro, DNA effects, Assay Code: UDH-, Evaluation Type: Evaluation A (Pre-1980)): inactive; negative
- mutagenic call (Species/Cell Type: Human embryo lung fibroblasts (WI-38 cells), Assay Type: Sister-chromatid exchange (SCE) in vitro, Assay Code: SCW+D, Dose Response: With dose response, Evaluation Type: Evaluation A (Pre-1980)): active; positive
- mutagenic call (Species/Cell Type: Human embryo lung fibroblasts (WI-38 cells), Assay Type: Sister-chromatid exchange (SCE) in vitro, Assay Code: SCW+D, Dose Response: With dose response, Evaluation Type: Evaluation B (Post-1980)): active; positive
- mutagenic call (Species/Cell Type: Human lymphocytes, Assay Type: Micronucleus test in vitro, chromosome aberrations, Assay Code: MN7+, Evaluation Type: Evaluation A (Pre-1980)): active; positive
- mutagenic call (Species/Cell Type: Human lymphocytes, Assay Type: Sister-chromatid exchange (SCE) in vitro, Assay Code: SCL+D, Dose Response: With dose response, Evaluation Type: Evaluation A (Pre-1980)): active; positive
- mutagenic call (Species/Cell Type: Human lymphocytes, Assay Type: Sister-chromatid exchange (SCE) in vitro, Assay Code: SCLT, Evaluation Type: Evaluation B (Post-1980)): no conclusion
- mutagenic call (Species/Cell Type: Human, Assay Type: Sister-chromatid exchange (SCE) in vitro, Assay Code: SC1+D, Dose Response: With dose response, Evaluation Type: Evaluation A (Pre-1980)): active; positive
- mutagenic call (Species/Cell Type: Human, Assay Type: Sister-chromatid exchange (SCE) in vitro, Assay Code: SC1T, Evaluation Type: Evaluation B (Post-1980)): no conclusion
- mutagenic call (Species/Cell Type: Mammalian polychromatic erythrocytes, Assay Type: Micronucleus test, chromosome aberrations, Assay Code: MNT+, Evaluation Type: Evaluation A (Pre-1980)): active; positive
- mutagenic call (Species/Cell Type: Mouse (C3H/10T1/2) cells, Assay Type: Cell transformation, Assay Code: CTH-, Evaluation Type: Evaluation A (Pre-1980)): inactive; negative
- mutagenic call (Species/Cell Type: Mouse, Sex: Male, Assay Type: Sperm morphology, Assay Code: SPI+, Evaluation Type: Evaluation A (Pre-1980)): active; positive
- call [8]: no conclusion
- mutagenic call (Species/Cell Type: Nonhuman, Assay Type: Sister-chromatid exchange (SCE) in vitro, Assay Code: SC2+D, Dose Response: With dose response, Evaluation Type: Evaluation A (Pre-1980)): active; positive
- mutagenic call (Species/Cell Type: Nonhuman, Assay Type: Sister-chromatid exchange (SCE) in vitro, Assay Code: SC2+D, Dose Response: With dose response, Evaluation Type: Evaluation B (Post-1980)): active; positive
- mutagenic call (Species/Cell Type: Nonhuman, Assay Type: Sister-chromatid exchange (SCE) in vivo, Assay Code: SC3+D, Dose Response: With dose response, Evaluation Type: Evaluation A (Pre-1980)): active; positive
- mutagenic call (Species/Cell Type: Nonhuman, Assay Type: Sister-chromatid exchange (SCE) in vivo, Assay Code: SC3+D, Dose Response: With dose response, Evaluation Type: Evaluation B (Post-1980)): active; positive
- mutagenic call [2]: inactive; negative
- mutagenic call [10]: active; positive
- mutagenic call (Species/Cell Type: Syrian hamster embryo (SHE) cells, Assay Type: Cell transformation, clonal assay, Assay Code: CTCT, Evaluation Type: Evaluation A (Pre-1980)): no conclusion

SMILES: [Cl-].[Cl-].[Cl-].[Cl-].[Cl-].[Cl-].[Mo]
- mutagenic call [10]: active; positive

SMILES: Cc1c2ccccc2c(C)c2c1cc(O)c1ccccc12
- mutagenic call (Species/Cell Type: Chinese hamster lung (V79) cells, Assay Type: Forward gene mutation at the HPRT or ouabain locus, Assay Code: V79-*, Activation: With metabolic activation, Evaluation Type: Evaluation A (Pre-1980)): inactive; negative
- call [8]: no conclusion

From PubChem BioAssay AID1259408 (Genetic Toxicology Data Bank (GENE-TOX), 2018)
